The values below come from patent US20070049592A1, “Bis-aryl urea compounds and methods of use” (priority 2005, published 2007).

Assay [1] relates to Human Umbilical Vein Endothelial cells. The assay is described as follows: HUVEC proliferation assay (VEGF). The format is cell-based. The note with it: VEGF-stimulated HUVEC proliferation. How it is done:
Human Umbilical Vein Endothelial cells are purchased from Clonetics, Inc., as cryopreserved cells harvested from a pool of donors. These cells, at passage 1, are thawed and expanded in EBM-2 complete medium, until passage 2 or 3. The cells are trypsinized, washed in DMEM+10% FBS+antibiotics, and spun at 1000 rpm for 10 min. Prior to centrifugation of the cells, a small amount is collected for a cell count. After centrifugation, the medium is discarded, and the cells are resuspended in the appropriate volume of DMEM+10% FBS+antibiotics to achieve a concentration of 3×10^5 cells/mL. Another cell count is performed to confirm the cell concentration. The cells are diluted to 3×10^4 cells/mL in DMEM+10% FBS+antibiotics, and 100 μL of cells are added to a 96-well plate. The cells are incubated at 37° C. for 22 h.
Prior to the completion of the incubation period, compound dilutions are prepared. Five-point, five-fold serial dilutions are prepared in DMSO, at concentrations 400-fold greater than the final concentrations desired. 2.5 μL of each compound dilution are diluted further in a total of 1 mL DMEM+10% FBS+antibiotics (400× dilution). Medium containing 0.25% DMSO is also prepared for the 0 μM compound sample. At the 22 h timepoint, the medium is removed from the cells, and 100 μL of each compound dilution is added. The cells are incubated at 37° C. for 2-3 h.
During the compound pre-incubation period, the growth factors are diluted to the appropriate concentrations. Solutions of DMEM+10% FBS+antibiotics, containing either VEGF or bFGF at the following concentrations: 50, 10, 2, 0.4, 0.08, and 0 ng/mL are prepared. For the compound-treated cells, solutions of VEGF at 550 ng/mL or bFGF at 220 ng/mL for 50 ng/mL or 20 ng/mL final concentrations, respectively, are prepared since 10 μL of each will be added to the cells (110 μL final volume). At the appropriate time after adding the compounds, the growth factors are added. VEGF is added to one set of plates, while bFGF is added to another set of plates. For the growth factor control curves, the media on wells B4-G6 of plates 1 and 2 are replaced with media containing VEGF or bFGF at the varying concentrations (50-0 ng/mL). The cells are incubated at 37° C. for an additional 72 h.
At the completion of the 72 h incubation period, the medium is removed, and the cells are washed twice with PBS. After the second wash with PBS, the plates are tapped gently to remove excess PBS, and the cells are placed at −70° C. for at least 30 min. The cells are thawed and analyzed using the CyQuant fluorescent dye (Molecular Probes C-7026), following the manufacturer's recommendations. The plates are read on a Victor/Wallac 1420 workstation at 485 nm/530 nm (excitation/emission). Raw data is collected and analyzed using a 4-parameter fit equation in XLFit. IC50 values are then determined.

Assay [2] has as its system production of TNF by monocytes activated with bacterial lipopolysaccharide (LPS). The assay is described as follows: Lipopolysaccharide-activated monocyte TNF production assay. Type of assay: cell-based. The note with it: Homo sapiens, as a determination of p38 activity, read-out: IC50 values in the monocyte assay (LPS induced TNF release). As to the method: Test compounds were evaluated in vitro for the ability to inhibit the production of TNF by monocytes activated with bacterial lipopolysaccharide (LPS). Fresh residual source leukocytes (a byproduct of plateletpheresis) were obtained from a local blood bank, and peripheral blood mononuclear cells (PBMCs) were isolated by density gradient centrifugation on Ficol-Paque Plus (Pharmacia). PBMCs were suspended at 2×10^6/ml in DMEM supplemented to contain 2% FCS, 10 mM, 0.3 mg/ml […], 100 U/ml penicillin G and […] streptomycin sulfate (complete media). Cells were plated into Falcon flat bottom, 96 well culture plates (200 μl/well) and cultured overnight at 37° C. and 6% CO2. Non-adherent cells were removed by washing with 200 μl/well of fresh medium. Wells containing adherent cells (˜70% monocytes) were replenished with 100 μl of fresh medium.
Test compounds were dissolved in […]. Compound stock solutions were prepared to an initial concentration of […]. Stocks were diluted initially to 20-200 μM in complete media. Nine two-fold serial dilutions of each compound were then prepared in complete medium.
One hundred microliters of each test compound dilution were added to microtiter wells containing adherent monocytes and 100 μl complete medium. Monocytes were cultured with test compounds for 60 min at which time 25 μl of complete medium containing 30 ng/ml lipopolysaccharide from E. coli K532 were added to each well. Cells were cultured an additional 4 hrs. Culture supernatants were then removed and TNF presence in the supernatants was quantified using an ELISA.
Flat bottom, 96 well Corning High Binding ELISA plates were coated overnight (4° C.) with 150 μL/well of 3 μg/ml murine anti-human TNF-α MAb (R&D Systems #MAB210). Wells were then blocked for 1 hr at room temperature with 200 μL/well of CaCl2-free ELISA buffer supplemented to contain 20 mg/ml BSA (standard ELISA buffer: […], 150 mM NaCl, 2 mM CaCl2, 0.15 mM thimerosal, pH 7.4). Plates were washed and replenished with 100 μl of test supernatants (diluted 1:3) or standards. Standards consisted of eleven 1.5-fold serial dilutions from a stock of 1 ng/ml recombinant human TNF (R&D Systems). Plates were incubated at room temperature for 1 hr on orbital shaker (300 rpm), washed and replenished with 100 μl/well of 0.5 μg/ml goat anti-human TNF-α (R&D systems #AB-210-NA) biotinylated at a 4:1 ratio. Plates were incubated for 40 min, washed and replenished with 100 μl/well of alkaline phosphatase-conjugated streptavidin (Jackson ImmunoResearch #016-050-084) at 0.02 μg/ml. Plates were incubated 30 min, washed and replenished with 200 μl/well of 1 mg/ml of p-nitrophenyl phosphate. After 30 min, plates were read at 405 nm on a Vmax plate reader.
Standard curve data were fit to a second order polynomial and unknown TNF-α concentrations determined from their OD by solving this equation for concentration. TNF concentrations were then plotted vs. test compound concentration using a second order polynomial. This equation was then used to calculate the concentration of test compounds causing a 50% reduction in TNF production.

In general, IC50 refers to the concentration that gives 50% inhibition. Turning to `CNc1cc(N(C)C(=O)Nc2cc(C(=O)Nc3cccc(C(F)(F)F)c3)ccc2C)ncn1` [Example 16, ′4-methyl-3-(((methyl(6-(methylamino)-4-pyrimidinyl)amino)carbonyl)amino)-N-(3-(trifluoromethyl)phenyl) benzamide], the 50% inhibitory concentration (IC50) in assay [1] is < 5 µM; in assay [2], ≤ 5 µM.

For `CNc1cc(N(C)C(=O)Nc2cc(C(=O)Nc3cccc(C(C)C)c3)ccc2C)ncn1` [Example 17, 4-methyl-N-(3-(1-methylethyl)phenyl)-3-(((methyl(6-(methylamino)-4-pyrimidinyl)amino)carbonyl)amino) benzamide], the IC50 was < 5 µM in assay [1] and ≤ 5 µM in assay [2].

In the case of `CNc1cc(N(C)C(=O)Nc2cc(C(=O)Nc3cc(OC)cc(C(F)(F)F)c3)ccc2C)ncn1` [Example 18, 4-methyl-3-(((methyl(6-(methylamino)-4-pyrimidinyl)amino)carbonyl)amino)-N-(3-(methyloxy)-5-(trifluoromethyl)phenyl) benzamide], the results for the IC50 in assay [1] and in assay [2] were < 5 µM and ≤ 5 µM, respectively.

As to `CNc1cc(N(C)C(=O)Nc2cc(C(=O)Nc3cccc(C(F)(F)F)c3C)ccc2C)ncn1` [Example 20, 4-methyl-3-(((methyl(6-(methylamino)-4-pyrimidinyl)amino)carbonyl)amino)-N-(2-methyl-3-(trifluoromethyl)phenyl)benzamide], the IC50 in assay [1] is < 5 µM; in assay [2], ≤ 5 µM.

In the case of `CNc1cc(N(C)C(=O)Nc2cc(C(=O)Nc3ccc4ccccc4c3)ccc2C)ncn1` [Example 23, 4-methyl-3-(((methyl(6-(methylamino)-4-pyrimidinyl)amino)carbonyl)amino)-N-(2-naphthalenyl) benzamide], the 50% inhibitory concentration (IC50) in assay [1] is < 5 µM; in assay [2] it was ≤ 5 µM.

`CNc1cc(N(C)C(=O)Nc2cc(C(=O)Nc3cccc(C(F)(F)F)c3F)ccc2C)ncn1` [Example 24, N-(2-fluoro-3-(trifluoromethyl)phenyl)-4-methyl-3-((methyl(6-(methylamino)-4-pyrimidinyl)amino)carbonylamino)benzamide]: the results for the concentration for half-maximal inhibition (IC50) in assay [1] and in assay [2] were < 5 µM and ≤ 5 µM, respectively.

`CNc1cc(N(C)C(=O)Nc2cc(C(=O)Nc3ccc(C(C)(C)C)cc3)ccc2C)ncn1` [Example 25]: the IC50 in assay [1] is < 5 µM; in assay [2], ≤ 5 µM.

On to `CNc1ncnc(N(C)C(=O)Nc2cc(C(=O)Nc3ccc4ccccc4c3)ccc2C)n1` [Example 30, 4-methyl-3-(((methyl(4-(methylamino)-1,3,5-triazin-2-yl)amino)carbonyl)amino)-N-(2-naphthalenyl) benzamide], for which the figures for the IC50 in assay [1] and in assay [2] were < 5 µM and ≤ 5 µM, respectively.

As to `CNc1cc(N(C)C(=O)Nc2cc(C(=O)Nc3cccc(-c4ccccc4)c3)ccc2C)ncn1` [Example 31, N-(1,1′-biphenyl-3-yl)-4-methyl-3-(((methyl(6-(methylamino)-4-pyrimidinyl)amino)carbonyl)amino)benzamide], the results for the IC50 in assay [1] and in assay [2] were < 5 µM and ≤ 5 µM, respectively.

Consider `CNc1cc(N(C)C(=O)Nc2cc(C(=O)Nc3ccc(C(F)(F)F)cc3)ccc2C)ncn1` [Example 32, 4-methyl-3-(((methyl(6-(methylamino)-4-pyrimidinyl)amino)carbonyl)amino)-N-(4-(trifluoromethyl)phenyl)benzamide], for which the 50% inhibitory concentration (IC50) in assay [1] is < 5 µM; in assay [2], ≤ 5 µM.
